Reference: patent US12673945B2, “3-((8-((1H-pyrazol-4-yl)amino)imidazo[1,2-a]pyridin-3-yl)ethinyl)-n-phenylbenzamide derivative, method for preparing same, and pharmaceutical composition containing same as active ingredient for prevention or treatment of cancer” (DAEGU-GYEONGBUK MEDICAL INNOVATION FOUNDATION, priority 2020, dated 2026)

Assays:
Assay in all cases: scanMAX Kinase panel (DiscoverX)
Type in all cases: binding
CDK11 = target: T1, CDK11 (Homo sapiens, UniProt Q9BWU1)
T1 construct: purchased DiscoverX scanMAX Kinase panel
Method: (§1) Among the example compounds of the present invention, the enzyme (kinase) selectivity of the selected compounds of Examples 1 and 4 was measured by requesting DiscoverX. At this time, the experiment was performed using a panel for scanMAX™ Kinase. The concentration of the drug treated to the enzyme was 1 μM in DMSO, and the percentage control (% control) was determined by the method shown in Equation 1 below. (Example Compound−Positive Control)/(Negative Control−Positive control)×100 [Equation 1]

FLT3(D835Y) = target: T2, FLT3(D835Y) (Homo sapiens, UniProt P36888, D835Y); details: read-out: % Cont @ 1 uM
T2 construct: purchased DiscoverX scanMAX Kinase panel
Method: as §1

MET(Y1235D) = target: T3, MET(Y1235D) (Homo sapiens, UniProt P08581, Y1235D)
T3 construct: purchased DiscoverX scanMAX Kinase panel
Method: as §1

KIT = target: T4, KIT (Homo sapiens, UniProt P10721); details: read-out: % Cont @ 1 uM
T4 construct: purchased DiscoverX scanMAX Kinase panel
Method: as §1

LOK = target: T5, LOK (Homo sapiens, UniProt O94804)
T5 construct: purchased DiscoverX scanMAX Kinase panel
Method: as §1

EPHA3 = target: T6, EPHA3 (Homo sapiens, UniProt P29320); details: read-out: % Cont @ 1 uM
T6 construct: purchased DiscoverX scanMAX Kinase panel
Method: as §1

TNK1 = target: T7, TNK1 (Homo sapiens, UniProt Q13470); details: read-out: % Cont @ 1 uM
T7 construct: purchased DiscoverX scanMAX Kinase panel
Method: as §1

PFTAIRE2 = target: T8, PFTAIRE2 (Homo sapiens, UniProt Q96Q40); details: read-out: % Cont @ 1 uM
T8 construct: purchased DiscoverX scanMAX Kinase panel
Method: as §1

NEK1 = target: T9, NEK1 (Homo sapiens, UniProt Q96PY6); details: read-out: % Cont @ 1 uM
T9 construct: purchased DiscoverX scanMAX Kinase panel
Method: as §1

PCTK2 = target: T10, PCTK2 (Homo sapiens, UniProt Q00537); details: read-out: % Cont @ 1 uM
T10 construct: purchased DiscoverX scanMAX Kinase panel
Method: as §1

DDR1 = target: T11, DDR1 (Homo sapiens, UniProt Q08345); details: read-out: % Cont @ 1 uM
T11 construct: purchased DiscoverX scanMAX Kinase panel
Method: as §1

NEK4 = target: T12, NEK4 (Homo sapiens, UniProt P51957); details: read-out: % Cont @ 1 uM
T12 construct: purchased DiscoverX scanMAX Kinase panel
Method: as §1

ABL1-nonphosphorylated = target: T13, ABL1-nonphosphorylated (Homo sapiens, UniProt P00519); details: read-out: % Cont @ 1 uM
T13 construct: purchased DiscoverX scanMAX Kinase panel
Method: as §1

NLK = target: T14, NLK (Homo sapiens, UniProt Q9UBE8); details: read-out: % Cont @ 1 uM
T14 construct: purchased DiscoverX scanMAX Kinase panel
Method: as §1

MEK5 = target: T15, MEK5 (Homo sapiens, UniProt Q13163); details: read-out: % Cont @ 1 uM
T15 construct: purchased DiscoverX scanMAX Kinase panel
Method: as §1

FGR = target: T16, FGR (Homo sapiens, UniProt P09769); details: read-out: % Cont @ 1 uM
T16 construct: purchased DiscoverX scanMAX Kinase panel
Method: as §1

EPHA6 = target: T17, EPHA6 (Homo sapiens, UniProt Q9UF33); details: read-out: % Cont @ 1 uM
T17 construct: purchased DiscoverX scanMAX Kinase panel
Method: as §1

FLT4 = target: T18, FLT4 (Homo sapiens, UniProt P35916); details: read-out: % Cont @ 1 uM
T18 construct: purchased DiscoverX scanMAX Kinase panel
Method: as §1

ABL2 = target: T19, ABL2 (Homo sapiens, UniProt P42684); details: read-out: % Cont @ 1 uM
T19 construct: purchased DiscoverX scanMAX Kinase panel
Method: as §1

EGFR(G719C) = target: T20, EGFR(G719C) (Homo sapiens, UniProt P00533, G719C)
T20 construct: purchased DiscoverX scanMAX Kinase panel
Method: as §1

MKNK2 = target: T21, MKNK2 (Homo sapiens, UniProt Q9HBH9); details: read-out: % Cont @ 1 uM
T21 construct: purchased DiscoverX scanMAX Kinase panel
Method: as §1

ERK8 = target: T22, ERK8 (Homo sapiens, UniProt Q8TD08); details: read-out: % Cont @ 1 uM
T22 construct: purchased DiscoverX scanMAX Kinase panel
Method: as §1

EPHA7 = target: T23, EPHA7 (Homo sapiens, UniProt Q15375); details: read-out: % Cont @ 1 uM
T23 construct: purchased DiscoverX scanMAX Kinase panel
Method: as §1

TAOK2 = target: T24, TAOK2 (Homo sapiens, UniProt Q9UL54); details: read-out: % Cont @ 1 uM
T24 construct: purchased DiscoverX scanMAX Kinase panel
Method: as §1

EGFR(G719S) = target: T25, EGFR(G719S) (Homo sapiens, UniProt P00533, G719S)
T25 construct: purchased DiscoverX scanMAX Kinase panel
Method: as §1

IKK-beta = target: T26, IKK-beta (Homo sapiens, UniProt O14920); details: read-out: % Cont @ 1 uM
T26 construct: purchased DiscoverX scanMAX Kinase panel
Method: as §1

PAK3 = target: T27, PAK3 (Homo sapiens, UniProt O75914); details: read-out: % Cont @ 1 uM
T27 construct: purchased DiscoverX scanMAX Kinase panel
Method: as §1

ABL1-phosphorylated = target: T28, ABL1-phosphorylated (Homo sapiens, UniProt P00519); details: read-out: % Cont @ 1 uM
T28 construct: purchased DiscoverX scanMAX Kinase panel
Method: as §1

TESK1 = target: T29, TESK1 (Homo sapiens, UniProt Q15569); details: read-out: % Cont @ 1 uM
T29 construct: purchased DiscoverX scanMAX Kinase panel
Method: as §1

LTK = target: T30, LTK (Homo sapiens, UniProt P29376); details: read-out: % Cont @ 1 uM
T30 construct: purchased DiscoverX scanMAX Kinase panel
Method: as §1

EPHB2 = target: T31, EPHB2 (Homo sapiens, UniProt P29323)
T31 construct: purchased DiscoverX scanMAX Kinase panel
Method: as §1

KIT(A829P) = target: T32, KIT(A829P) (Homo sapiens, UniProt P10721, A829P); details: read-out: % Cont @ 1 uM
T32 construct: purchased DiscoverX scanMAX Kinase panel
Method: as §1

EPHA5 = target: T33, EPHA5 (Homo sapiens, UniProt P54756)
T33 construct: purchased DiscoverX scanMAX Kinase panel
Method: as §1

KIT(V559D, V654A) = target: T34, KIT(V559D, V654A) (Homo sapiens, UniProt P10721, V559D/V654A); details: read-out: % Cont @ 1 uM
T34 construct: purchased DiscoverX scanMAX Kinase panel
Method: as §1

DLK = target: T35, DLK (Homo sapiens, UniProt Q12852)
T35 construct: purchased DiscoverX scanMAX Kinase panel
Method: as §1

FGFR3 = target: T36, FGFR3 (Homo sapiens, UniProt P22607); details: read-out: % Cont @ 1 uM
T36 construct: purchased DiscoverX scanMAX Kinase panel
Method: as §1

EGFR = target: T37, EGFR (Homo sapiens, UniProt P00533)
T37 construct: purchased DiscoverX scanMAX Kinase panel
Method: as §1

EPHA8 = target: T38, EPHA8 (Homo sapiens, UniProt P29322); details: read-out: % Cont @ 1 uM
T38 construct: purchased DiscoverX scanMAX Kinase panel
Method: as §1

CIT = target: T39, CIT (Homo sapiens, UniProt O14578)
T39 construct: purchased DiscoverX scanMAX Kinase panel
Method: as §1

TRKC = target: T40, TRKC (Homo sapiens, UniProt Q16288); details: read-out: % Cont @ 1 uM
T40 construct: purchased DiscoverX scanMAX Kinase panel
Method: as §1

T40 sequence (Q16288 32-839): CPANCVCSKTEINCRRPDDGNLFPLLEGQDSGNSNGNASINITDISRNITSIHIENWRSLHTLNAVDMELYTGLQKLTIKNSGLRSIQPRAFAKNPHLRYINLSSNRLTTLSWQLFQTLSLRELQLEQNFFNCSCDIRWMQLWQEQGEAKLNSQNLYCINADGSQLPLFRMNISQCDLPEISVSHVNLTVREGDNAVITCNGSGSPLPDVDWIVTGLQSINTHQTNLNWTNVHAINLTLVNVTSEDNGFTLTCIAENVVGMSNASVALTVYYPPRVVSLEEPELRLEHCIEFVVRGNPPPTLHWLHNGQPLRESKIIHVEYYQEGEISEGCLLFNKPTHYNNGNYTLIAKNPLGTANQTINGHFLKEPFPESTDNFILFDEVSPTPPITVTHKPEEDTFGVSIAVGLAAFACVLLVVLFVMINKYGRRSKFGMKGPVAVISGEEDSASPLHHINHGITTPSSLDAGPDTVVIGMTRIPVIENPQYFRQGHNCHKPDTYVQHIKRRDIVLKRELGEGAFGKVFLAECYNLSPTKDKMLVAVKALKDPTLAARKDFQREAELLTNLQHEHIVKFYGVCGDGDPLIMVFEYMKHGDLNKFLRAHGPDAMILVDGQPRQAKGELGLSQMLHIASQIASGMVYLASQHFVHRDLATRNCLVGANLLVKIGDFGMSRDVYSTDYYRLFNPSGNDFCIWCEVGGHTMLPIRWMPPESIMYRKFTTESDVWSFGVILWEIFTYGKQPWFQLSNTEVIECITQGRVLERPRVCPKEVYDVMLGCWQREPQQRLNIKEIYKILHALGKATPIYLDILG
T21 sequence (Q9HBH9 whole entry): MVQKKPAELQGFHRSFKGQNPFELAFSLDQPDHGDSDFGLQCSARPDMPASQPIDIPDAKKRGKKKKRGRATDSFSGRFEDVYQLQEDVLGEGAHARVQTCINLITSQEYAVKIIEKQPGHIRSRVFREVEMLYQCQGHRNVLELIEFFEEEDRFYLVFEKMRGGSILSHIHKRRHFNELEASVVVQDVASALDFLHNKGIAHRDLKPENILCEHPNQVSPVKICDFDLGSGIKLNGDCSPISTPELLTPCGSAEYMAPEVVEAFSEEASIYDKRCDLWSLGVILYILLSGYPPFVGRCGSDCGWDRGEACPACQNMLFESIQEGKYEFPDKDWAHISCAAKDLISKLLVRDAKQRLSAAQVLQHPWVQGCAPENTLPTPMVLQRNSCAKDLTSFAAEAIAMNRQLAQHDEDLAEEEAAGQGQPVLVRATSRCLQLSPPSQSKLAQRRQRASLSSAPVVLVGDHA
T17 sequence (Q9UF33 23-1036): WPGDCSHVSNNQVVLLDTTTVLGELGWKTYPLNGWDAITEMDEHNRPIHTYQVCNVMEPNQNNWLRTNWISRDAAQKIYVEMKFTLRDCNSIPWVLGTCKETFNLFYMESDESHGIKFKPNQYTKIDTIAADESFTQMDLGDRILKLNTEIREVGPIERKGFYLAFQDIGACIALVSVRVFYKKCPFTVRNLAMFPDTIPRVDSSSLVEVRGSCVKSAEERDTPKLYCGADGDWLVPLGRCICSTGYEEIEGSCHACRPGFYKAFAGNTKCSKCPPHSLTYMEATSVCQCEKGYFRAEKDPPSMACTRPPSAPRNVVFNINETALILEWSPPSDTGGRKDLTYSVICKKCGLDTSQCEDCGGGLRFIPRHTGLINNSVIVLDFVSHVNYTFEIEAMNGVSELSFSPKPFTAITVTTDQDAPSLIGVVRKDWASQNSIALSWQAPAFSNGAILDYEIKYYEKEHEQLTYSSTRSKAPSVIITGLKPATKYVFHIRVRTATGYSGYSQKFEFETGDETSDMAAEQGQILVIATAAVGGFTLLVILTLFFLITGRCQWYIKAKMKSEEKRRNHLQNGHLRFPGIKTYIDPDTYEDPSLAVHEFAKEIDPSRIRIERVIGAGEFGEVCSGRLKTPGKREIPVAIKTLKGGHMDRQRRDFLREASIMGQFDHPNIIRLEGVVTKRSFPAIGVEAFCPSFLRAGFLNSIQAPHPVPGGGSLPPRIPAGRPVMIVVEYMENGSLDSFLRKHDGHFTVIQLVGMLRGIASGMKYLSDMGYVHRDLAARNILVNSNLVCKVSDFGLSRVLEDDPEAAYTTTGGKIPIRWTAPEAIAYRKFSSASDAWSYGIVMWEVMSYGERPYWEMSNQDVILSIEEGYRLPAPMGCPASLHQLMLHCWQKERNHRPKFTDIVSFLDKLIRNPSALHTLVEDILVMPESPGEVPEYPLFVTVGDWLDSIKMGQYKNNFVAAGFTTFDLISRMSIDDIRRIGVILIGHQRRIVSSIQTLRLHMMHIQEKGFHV
T32 sequence (P10721 26-976 A829P): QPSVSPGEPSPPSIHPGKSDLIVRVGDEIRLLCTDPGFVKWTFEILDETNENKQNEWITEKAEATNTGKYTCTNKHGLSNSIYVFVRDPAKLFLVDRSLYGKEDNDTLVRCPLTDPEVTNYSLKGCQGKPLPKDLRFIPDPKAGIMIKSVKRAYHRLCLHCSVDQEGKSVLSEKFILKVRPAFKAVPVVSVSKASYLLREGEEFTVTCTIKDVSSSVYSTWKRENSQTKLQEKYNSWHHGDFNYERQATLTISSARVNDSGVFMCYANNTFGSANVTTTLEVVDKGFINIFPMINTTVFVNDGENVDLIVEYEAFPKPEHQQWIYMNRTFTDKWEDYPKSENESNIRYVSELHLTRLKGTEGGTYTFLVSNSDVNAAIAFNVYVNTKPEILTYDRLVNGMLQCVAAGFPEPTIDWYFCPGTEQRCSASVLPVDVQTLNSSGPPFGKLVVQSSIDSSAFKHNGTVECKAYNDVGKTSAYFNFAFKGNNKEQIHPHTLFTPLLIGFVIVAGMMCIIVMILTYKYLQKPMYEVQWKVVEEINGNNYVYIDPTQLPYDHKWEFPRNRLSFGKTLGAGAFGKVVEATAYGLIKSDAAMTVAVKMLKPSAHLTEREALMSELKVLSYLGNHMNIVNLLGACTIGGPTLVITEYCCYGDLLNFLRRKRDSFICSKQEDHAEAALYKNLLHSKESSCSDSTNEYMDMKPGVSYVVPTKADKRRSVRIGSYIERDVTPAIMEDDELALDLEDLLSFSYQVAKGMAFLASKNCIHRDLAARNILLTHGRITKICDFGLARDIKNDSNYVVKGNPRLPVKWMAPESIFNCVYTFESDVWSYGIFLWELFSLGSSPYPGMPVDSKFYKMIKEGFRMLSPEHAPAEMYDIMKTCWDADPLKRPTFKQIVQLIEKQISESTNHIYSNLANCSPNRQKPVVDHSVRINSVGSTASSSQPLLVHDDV
T30 sequence (P29376 17-864): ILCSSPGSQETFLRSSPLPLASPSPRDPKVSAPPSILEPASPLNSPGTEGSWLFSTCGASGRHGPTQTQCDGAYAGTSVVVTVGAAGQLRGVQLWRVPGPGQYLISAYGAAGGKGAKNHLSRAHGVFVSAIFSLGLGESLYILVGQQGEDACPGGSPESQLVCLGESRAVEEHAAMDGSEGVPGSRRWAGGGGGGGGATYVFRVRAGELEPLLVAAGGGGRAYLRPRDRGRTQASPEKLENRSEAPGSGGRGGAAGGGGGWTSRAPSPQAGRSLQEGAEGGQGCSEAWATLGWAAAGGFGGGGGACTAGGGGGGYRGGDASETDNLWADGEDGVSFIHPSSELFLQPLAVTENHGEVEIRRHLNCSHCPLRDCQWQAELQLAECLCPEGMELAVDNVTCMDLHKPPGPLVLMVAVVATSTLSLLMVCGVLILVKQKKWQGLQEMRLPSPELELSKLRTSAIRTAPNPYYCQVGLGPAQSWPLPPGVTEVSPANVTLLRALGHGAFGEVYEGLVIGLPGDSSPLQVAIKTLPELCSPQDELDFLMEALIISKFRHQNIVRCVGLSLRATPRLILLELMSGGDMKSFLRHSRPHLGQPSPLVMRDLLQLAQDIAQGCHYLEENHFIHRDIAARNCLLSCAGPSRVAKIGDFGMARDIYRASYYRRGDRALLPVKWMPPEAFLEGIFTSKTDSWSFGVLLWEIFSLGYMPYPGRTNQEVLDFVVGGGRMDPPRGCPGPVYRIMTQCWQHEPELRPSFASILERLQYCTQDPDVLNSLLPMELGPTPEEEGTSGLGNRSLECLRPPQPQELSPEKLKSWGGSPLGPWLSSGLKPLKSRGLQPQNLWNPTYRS
T15 sequence (Q13163 whole entry): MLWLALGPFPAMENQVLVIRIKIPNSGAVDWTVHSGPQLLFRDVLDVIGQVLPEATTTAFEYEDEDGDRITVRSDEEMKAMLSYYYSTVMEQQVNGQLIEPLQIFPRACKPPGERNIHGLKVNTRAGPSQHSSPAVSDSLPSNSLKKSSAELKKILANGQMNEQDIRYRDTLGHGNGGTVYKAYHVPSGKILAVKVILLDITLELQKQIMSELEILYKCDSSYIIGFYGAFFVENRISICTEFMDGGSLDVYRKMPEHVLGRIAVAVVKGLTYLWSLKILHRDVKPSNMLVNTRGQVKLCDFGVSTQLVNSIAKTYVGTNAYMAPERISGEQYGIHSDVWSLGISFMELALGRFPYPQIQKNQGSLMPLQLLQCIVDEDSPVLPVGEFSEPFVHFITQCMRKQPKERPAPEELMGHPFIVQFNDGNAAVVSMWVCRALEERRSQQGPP
T22 sequence (Q8TD08 whole entry): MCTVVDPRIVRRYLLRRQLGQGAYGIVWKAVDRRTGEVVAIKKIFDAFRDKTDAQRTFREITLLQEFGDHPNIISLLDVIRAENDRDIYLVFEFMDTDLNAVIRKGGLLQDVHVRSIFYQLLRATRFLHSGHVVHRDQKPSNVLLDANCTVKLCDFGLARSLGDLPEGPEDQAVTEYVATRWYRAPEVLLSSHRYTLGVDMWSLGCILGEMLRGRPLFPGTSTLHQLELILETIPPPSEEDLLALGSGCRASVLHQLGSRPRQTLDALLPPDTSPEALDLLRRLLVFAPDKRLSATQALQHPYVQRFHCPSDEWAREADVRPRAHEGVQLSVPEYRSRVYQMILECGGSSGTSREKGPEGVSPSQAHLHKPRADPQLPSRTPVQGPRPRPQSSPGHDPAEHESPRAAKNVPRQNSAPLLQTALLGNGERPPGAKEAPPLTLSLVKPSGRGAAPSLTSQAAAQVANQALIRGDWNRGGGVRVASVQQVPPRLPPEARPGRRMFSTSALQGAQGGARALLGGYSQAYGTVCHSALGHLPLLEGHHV

SMILES | % Cont @ 1 uM (CDK11) [%] | remaining binding at 1 µM (FLT3(D835Y)) [%] | % Cont @ 1 uM (MET(Y1235D)) [%] | percent of control binding at 1 µM (KIT) [%] | % Cont @ 1 uM (LOK) [%] | remaining binding at 1 µM (EPHA3) [%] | remaining binding at 1 µM (TNK1) [%] | remaining binding at 1 µM (PFTAIRE2) [%] | remaining binding at 1 µM (NEK1) [%] | remaining binding at 1 µM (PCTK2) [%] | remaining binding at 1 µM (DDR1) [%] | remaining binding at 1 µM (NEK4) [%] | remaining binding at 1 µM (ABL1-nonphosphorylated) [%] | remaining binding at 1 µM (NLK) [%] | remaining binding at 1 µM (MEK5) [%] | remaining binding at 1 µM (FGR) [%] | remaining binding at 1 µM (EPHA6) [%] | remaining binding at 1 µM (FLT4) [%] | remaining binding at 1 µM (ABL2) [%] | % Cont @ 1 uM (EGFR(G719C)) [%] | further results
Cc1cn(-c2cc(NC(=O)c3cc(C#Cc4cnc5c(Nc6cnn(C)c6)cccn45)c(C)cc3F)cc(C(C)(C)C#N)c2)cn1 [Example 1, N-(3-(2-cyanopropane-2-yl)-5-(4-methyl-1H-imidazol-1-yl)phenyl)-2-fluoro-4-methyl-5-((8-((1-methyl-1H-pyrazol-4-yl)amino)imidazo[1,2-a]pyridin-3-yl)ethynyl)benzamide] | 14.8 | 14 | 17 | 0 | 0.05 | 4 | 30 | 4.3 | 34 | 23 | 0.15 | 28 | 1.9 | 0 | 0 | 3.5 | 16 | 0.35 | 0.4 | 5.2 | remaining binding at 1 µM (MKNK2): 0.7%; remaining binding at 1 µM (ERK8): 19%; remaining binding at 1 µM (EPHA7): 16%; remaining binding at 1 µM (TAOK2): 20%; % Cont @ 1 uM (EGFR(G719S)): 16%; percent of control binding at 1 µM (IKK-beta): 26%; remaining binding at 1 µM (PAK3): 7.1%; remaining binding at 1 µM (ABL1-phosphorylated): 0.45%; remaining binding at 1 µM (TESK1): 33%; remaining binding at 1 µM (LTK): 3.4%; % Cont @ 1 uM (EPHB2): 6.3%; percent of control binding at 1 µM (KIT(A829P)): 1.1%; % Cont @ 1 uM (EPHA5): 8.9%; remaining binding at 1 µM (KIT(V559D, V654A)): 2.9%; % Cont @ 1 uM (DLK): 5.9%; remaining binding at 1 µM (FGFR3): 23%; % Cont @ 1 uM (EGFR): 29%; remaining binding at 1 µM (EPHA8): 0.1%; % Cont @ 1 uM (CIT): 0.1%; remaining binding at 1 µM (TRKC): 0.05%
Cc1cn(-c2cc(NC(=O)c3cc(C#Cc4cnc5c(Nc6cnn(C)c6)cccn45)c(C)cc3F)cc(C(F)(F)F)c2)cn1 [Example 4, 2-fluoro-4-methyl-N-(3-(4-methyl-1H-imidazol-1-yl)-5-(trifluoromethyl)phenyl)-5-((8-((1-methyl-1H-pyrazol-4-yl)amino)imidazo[1,2-a]pyridin-3-yl)ethynyl)benzamide] | 55 | 22 | 87 | 1.6 | 0.2 | 8.4 | 31 | 76 | 100 | 85 | 0 | 90 | 5.6 | 14 | 1.2 | 12 | 25 | 4.4 | 2.9 | 56 | remaining binding at 1 µM (MKNK2): 96%; remaining binding at 1 µM (ERK8): 90%; remaining binding at 1 µM (EPHA7): 63%; remaining binding at 1 µM (TAOK2): 35%; % Cont @ 1 uM (EGFR(G719S)): 65%; percent of control binding at 1 µM (IKK-beta): 56%; remaining binding at 1 µM (PAK3): 10%; remaining binding at 1 µM (ABL1-phosphorylated): 8.4%; remaining binding at 1 µM (TESK1): 100%; remaining binding at 1 µM (LTK): 8.7%; % Cont @ 1 uM (EPHB2): 32%; percent of control binding at 1 µM (KIT(A829P)): 2%; % Cont @ 1 uM (EPHA5): 26%; remaining binding at 1 µM (KIT(V559D, V654A)): 12%; % Cont @ 1 uM (DLK): 89%; remaining binding at 1 µM (FGFR3): 88%; % Cont @ 1 uM (EGFR): 79%; remaining binding at 1 µM (EPHA8): 1.6%; % Cont @ 1 uM (CIT): 0.45%; remaining binding at 1 µM (TRKC): 1.4%
